In US20230159510A1, “NOVEL PRMT5 INHIBITORS” (AMGEN INC., priority 2020, published 2023) one finds IC50 and Ki data, which are given here for 20 compounds.

One assay relates to HCT116 WT cells. The assay can be described thus: HCT116 proliferation assay, WT cells (CellTiter-Glo, 6 days). The note with it: Homo sapiens, HCT-116, 144 h, read-out: Prolif_HCT116-WT IC50. It is filed as cell-based. The method, boiled down:
(§1)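 Readout is CellTiter-Glo luminescence after 6 days of drug exposure at 37 °C. Compounds tested as 8–9 point, 3-fold dilution series starting at 1 or 10 µM, versus DMSO only, on cells in RPMI 1640 with 10% FBS.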
Background: ATP-based viability assays read luminescence as a measure of living cells.

A further assay deals with PRMT5/MEP50 (Homo sapiens, UniProt O14744). The experiment in a line: MTase-Glo methyl transferase assay, Method A (Histone H4 peptide, 1 µM MTA, 24 h pre-incubation). It is filed as biochemical. Set-up: made in house. To be noted: read-out: PRMT5 MTase Glo Ki (nM, Meth. A). The method in brief:
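Luminescent SAH detection (MTase-Glo) after a 2 h room-temperature methylation of 1 µM biotinylated H4 (1-21) peptide by 10 nM PRMT5/MEP50 with 5 µM SAM, in 50 mM Tris pH 8.0.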

The next assay relates to HCT116 MTAP null cells. The experiment in a line: HCT116 proliferation assay, MTAP null cells (CellTiter-Glo, 6 days). Format: cell-based. The note with it: HCT116-MTAP null, 144 h, read-out: Protif_ HCT116-MTAP null IC50. The method, boiled down: as §1

Sequence of PRMT5/MEP50 (O14744 whole entry): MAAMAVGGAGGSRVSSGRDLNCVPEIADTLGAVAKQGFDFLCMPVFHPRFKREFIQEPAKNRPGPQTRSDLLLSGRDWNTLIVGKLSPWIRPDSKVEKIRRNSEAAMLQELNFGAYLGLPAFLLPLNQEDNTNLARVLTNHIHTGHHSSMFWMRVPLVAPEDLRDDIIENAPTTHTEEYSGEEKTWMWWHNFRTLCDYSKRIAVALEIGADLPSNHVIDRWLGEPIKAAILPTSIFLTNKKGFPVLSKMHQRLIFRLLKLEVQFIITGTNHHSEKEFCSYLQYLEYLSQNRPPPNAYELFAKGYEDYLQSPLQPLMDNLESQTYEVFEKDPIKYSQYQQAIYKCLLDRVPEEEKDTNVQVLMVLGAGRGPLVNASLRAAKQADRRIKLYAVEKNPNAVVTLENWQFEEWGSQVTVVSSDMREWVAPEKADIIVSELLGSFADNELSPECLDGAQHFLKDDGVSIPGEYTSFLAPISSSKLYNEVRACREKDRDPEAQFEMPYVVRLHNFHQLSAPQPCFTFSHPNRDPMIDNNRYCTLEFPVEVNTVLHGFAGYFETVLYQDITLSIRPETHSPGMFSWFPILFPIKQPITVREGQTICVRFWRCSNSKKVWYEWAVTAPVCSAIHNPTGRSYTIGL
Sequence of PRMT5/MEP50 (Q9BQA1 whole entry partner): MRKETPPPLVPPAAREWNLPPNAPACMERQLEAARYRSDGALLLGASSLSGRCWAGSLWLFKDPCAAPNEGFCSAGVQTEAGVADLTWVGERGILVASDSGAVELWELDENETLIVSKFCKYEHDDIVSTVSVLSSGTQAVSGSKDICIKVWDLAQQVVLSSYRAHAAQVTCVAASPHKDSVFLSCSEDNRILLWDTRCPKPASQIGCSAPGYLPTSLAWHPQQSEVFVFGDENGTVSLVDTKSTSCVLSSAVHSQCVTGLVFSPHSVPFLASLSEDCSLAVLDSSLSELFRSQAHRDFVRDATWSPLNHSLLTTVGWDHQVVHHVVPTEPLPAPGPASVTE

On to `C[C@H](c1ncccn1)N(Cc1ccc(Br)nn1)C(=O)c1cnc2nc(N)c(Br)cc2c1` [Example 350, 7-amino-6-bromo-N-((6-bromo-3-pyridazinyl)methyl)-N-((1R)-1-(2-pyrimidinyl)ethyl)-1,8-naphthyridine-3-carboxamide], for which the 50% inhibitory concentration (IC50) in the assay on HCT116 WT cells is more than 10000 nM; in the assay with HCT116 MTAP null cells, 397 nM. Besides, the Ki at PRMT5/MEP50 stood at 0.56 nM.

Consider `Cc1cnc(CN(Cc2ccc(C(F)(F)F)cn2)C(=O)c2ccc3nc(N)c(C)cc3c2)cn1` [Example 337, 2-amino-3-methyl-N-((5-methyl-2-pyrazinyl)methyl)-N-((5-(trifluoromethyl)-2-pyridinyl)methyl)-6-quinolinecarboxamide], for which the results for the IC50 in the assay with HCT116 WT cells and in the assay with HCT116 MTAP null cells were more than 10000 nM and 434 nM, respectively. Also, the Ki on PRMT5/MEP50 came out at 0.39 nM.

For the compound `Cc1cc2cc(C(=O)N(Cc3ccc(N(C)C)nn3)[C@H](C)c3ncccn3)ccc2nc1N` [Example 554, (R)-2-amino-N-((6-(dimethylamino)pyridazin-3-yl)methyl)-3-methyl-N-(1-(pyrimidin-2-yl)ethyl)quinoline-6-carboxamide], the figures for the IC50 in the assay with HCT116 WT cells and with HCT116 MTAP null cells were 4280 nM and 122 nM, respectively. The Ki at PRMT5/MEP50 was 0.07 nM.

As to `C[C@H](c1ncccc1F)N(Cc1ccc(C#N)cn1)C(=O)c1cnc2nc(N)c(Br)cc2c1` [Example 354, 7-amino-6-bromo-N-((5-cyano-2-pyridinyl)methyl)-N-((1R)-1-(3-fluoro-2-pyridinyl)ethyl)-1,8-naphthyridine-3-carboxamide], the figures for the IC50 in the assay with HCT116 WT cells and in the assay on HCT116 MTAP null cells were more than 10000 nM and 378 nM, respectively. For the same compound, the Ki at PRMT5/MEP50 is 0.29 nM.

Regarding `Cc1cc2cc(C(=O)N(Cc3ccc(C(F)(F)F)nn3)[C@H](C)c3cscn3)ccc2nc1N` (single isomer, unassigned) [Example 533], the results for the IC50 with HCT116 WT cells and in the assay on HCT116 MTAP null cells were 755 nM and 19 nM, respectively. Moreover, the inhibition constant Ki at PRMT5/MEP50 is 0.02 nM.

As for `Cc1cc2cc(C(=O)N(Cc3ccc(C(F)(F)F)cn3)[C@@H]3CCCc4cn[nH]c43)ccc2nc1N` (single isomer, unassigned) [Example 527], the IC50 with HCT116 WT cells was 142 nM; in the assay on HCT116 MTAP null cells it was 10 nM. Besides, the inhibitory constant (Ki) at PRMT5/MEP50 was 0.05 nM.

For `Cc1cc2cc(C(=O)N(Cc3ccc(OC(F)(F)F)cn3)[C@H](C)c3ncccn3)ccc2nc1N` (single isomer, unassigned) [Example 487], the half-maximal inhibitory concentration (IC50) turned out to be 730 nM with HCT116 WT cells and 26 nM in the assay on HCT116 MTAP null cells. Moreover, the inhibitory constant (Ki) at PRMT5/MEP50 turned out to be 0.04 nM.

On to `Cc1cc2cc(C(=O)N(Cc3ccc(C(F)(F)F)cn3)Cc3ncc(F)cn3)ccc2nc1N` [Example 341, 2-amino-N-((5-fluoro-2-pyrimidinyl)methyl)-3-methyl-N-((5-(trifluoromethyl)-2-pyridinyl)methyl)-6-quinolinecarboxamide], for which the IC50 with HCT116 WT cells was more than 10000 nM; in the assay with HCT116 MTAP null cells, 437 nM. The Ki on PRMT5/MEP50 worked out at 0.52 nM.

On to `Cc1cc2cc(C(=O)N(Cc3ccc(C#N)cn3)[C@@H](c3ncccn3)C3CC3)c(F)cc2nc1N` [Example 421, 2-amino-N-((5-cyano-2-pyridinyl)methyl)-N-((R)-cyclopropyl(2-pyrimidinyl)methyl)-7-fluoro-3-methyl-6-quinolinecarboxamide], for which the figures for the IC50 in the assay on HCT116 WT cells and in the assay with HCT116 MTAP null cells were 1130 nM and 56 nM, respectively. Also, on PRMT5/MEP50, the Ki was 0.54 nM.

Take `Cc1cc2cc(C(=O)N(Cc3ccc(C(F)(F)F)cn3)Cc3ncccc3Cl)ccc2nc1N` [Example 303, 2-amino-N-((3-chloro-2-pyridinyl)methyl)-3-methyl-N-((5-(trifluoromethyl)-2-pyridinyl)methyl)-6-quinolinecarboxamide]: the concentration for half-maximal inhibition (IC50) in the assay with HCT116 WT cells stood at 600 nM; in the assay on HCT116 MTAP null cells it was 32 nM. The inhibitory constant (Ki) on PRMT5/MEP50 is 0.01 nM.

With `C[C@H](c1ncccn1)N(Cc1ccc(C(F)(F)F)cn1)C(=O)c1ccc2nc(N)c(Cl)cc2c1` [Example 347, 2-amino-3-chloro-N-((1R)-1-(2-pyrimidinyl)ethyl)-N-((5-(trifluoromethyl)-2-pyridinyl)methyl)-6-quinolinecarboxamide], the concentration for half-maximal inhibition (IC50) came to 6200 nM in the assay with HCT116 WT cells and 168 nM with HCT116 MTAP null cells. The Ki on PRMT5/MEP50 was 0.17 nM.

In the case of `Cc1cc2cc(C(=O)N(Cc3ccc(OC4COC4)cn3)[C@H](C)c3ncccn3)ccc2nc1N` [Example 427, 2-amino-3-methyl-N-((5-(3-oxetanyloxy)-2-pyridinyl)methyl)-N-((1R)-1-(2-pyrimidinyl)ethyl)-6-quinolinecarboxamide], the half-maximal inhibitory concentration (IC50) in the assay on HCT116 WT cells came to 4250 nM; in the assay on HCT116 MTAP null cells, 151 nM. In addition, the inhibition constant (Ki) on PRMT5/MEP50 was determined as 0.1 nM.

Take `Cc1cc2cc(C(=O)N(Cc3ccc(C(F)(F)F)cn3)Cc3ncc(F)cc3F)ccc2nc1N` [Example 384, 2-amino-N-((3,5-difluoro-2-pyridinyl)methyl)-3-methyl-N-((5-(trifluoromethyl)-2-pyridinyl)methyl)-6-quinolinecarboxamide]: the results for the IC50 in the assay on HCT116 WT cells and with HCT116 MTAP null cells were 5100 nM and 177 nM, respectively. In addition, the Ki on PRMT5/MEP50 turned out to be 0.01 nM.

Consider `Cc1cc2cc(C(=O)N(Cc3ccc(C#N)cc3)[C@H](C)c3ncccn3)ccc2nc1N` (single isomer, unassigned) [Example 475], for which the 50% inhibitory concentration (IC50) in the assay with HCT116 WT cells amounted to 4460 nM; with HCT116 MTAP null cells, 268 nM. In addition, the inhibition constant (Ki) on PRMT5/MEP50 came out at 0.07 nM.

Take `COCC(COC)N(Cc1ccc(C(F)(F)F)cn1)C(=O)c1ccc2nc(N)c(C)cc2c1` [Example 511, 2-amino-N-(1,3-dimethoxy-2-propanyl)-3-methyl-N-((5-(trifluoromethyl)-2-pyridinyl)methyl)-6-quinolinecarboxamide]: the half-maximal inhibitory concentration (IC50) with HCT116 WT cells came to 2340 nM; in the assay with HCT116 MTAP null cells, 192 nM. In addition, the Ki at PRMT5/MEP50 was 0.14 nM.

Regarding `Cc1cc2cc(C(=O)N(Cc3ccc(C(F)(F)F)nn3)[C@@H]3CCOc4cccnc43)ccc2nc1N` (single isomer, unassigned) [Example 520], the IC50 in the assay on HCT116 WT cells was determined as 737 nM; with HCT116 MTAP null cells it was 24 nM. In addition, at PRMT5/MEP50, the Ki was determined as 0.04 nM.

Take `C[C@H](c1ncccn1)N(Cc1ccc(C#N)cn1)C(=O)c1ccc2nc(N)c(Br)cc2c1` [Example 417, 2-amino-3-bromo-N-((5-cyano-2-pyridinyl)methyl)-N-((1R)-1-(2-pyrimidinyl)ethyl)-6-quinolinecarboxamide]: the IC50 in the assay with HCT116 WT cells is more than 10000 nM; with HCT116 MTAP null cells, 151 nM. Also, at PRMT5/MEP50, the Ki came to 0.33 nM.

As to `Cc1cc2cc(C(=O)N(Cc3ccc(C(F)(F)F)cn3)Cc3ncccc3F)c(F)cc2nc1N` [Example 310, 2-amino-7-fluoro-N-((3-fluoro-2-pyridinyl)methyl)-3-methyl-N-((5-(trifluoromethyl)-2-pyridinyl)methyl)-6-quinolinecarboxamide], the IC50 with HCT116 WT cells was determined as 1600 nM; in the assay on HCT116 MTAP null cells it was 67 nM. Besides, the Ki at PRMT5/MEP50 amounted to 0.29 nM.

Turning to `Cc1cc2cc(C(=O)N(Cc3ccc(C(F)(F)F)cn3)Cc3ncccc3F)cnc2nc1N` [Example 537, 7-amino-N-((3-fluoropyridin-2-yl)methyl)-6-methyl-N-((5-(trifluoromethyl)pyridin-2-yl)methyl)-1,8-naphthyridine-3-carboxamide], the IC50 in the assay with HCT116 WT cells is 5960 nM; in the assay with HCT116 MTAP null cells, 701 nM. At PRMT5/MEP50, the Ki worked out at 0.51 nM.

`Cc1cc2cc(C(=O)N(Cc3ccc(Br)cn3)[C@@H]3CCCN(C)C3=O)ccc2nc1N` (single isomer, unassigned) [Example 448]: the values for the IC50 in the assay with HCT116 WT cells and in the assay on HCT116 MTAP null cells were 5230 nM and 238 nM, respectively. Moreover, on PRMT5/MEP50, the Ki stood at 0.32 nM.

In general, IC50 refers to the midpoint of a concentration-inhibition curve. In general, Ki refers to a dissociation constant, usually derived from enzyme kinetics or from competition with a known ligand.
